Assay results from patent US20150291645A1, “ISOACTEOSIDE DERIVATIVE AND USE THEREOF” (Sinphar Pharmaceutical Co., Ltd., priority 2014, published 2015).

Key:
[1] = system: Human retinal pigment epithelium cells (ARPE-19); experiment: Protection of ARPE-19 cells against tert-butyl hydroperoxide oxidative damage (MTT); type: cell-based; conditions: 24 hours; for cell viability compared to the control / inhibition of human retinal pigment epithelium cell death: with tBHP, Sample 2 at 6.25, 12.5, 25 μM, Sample 8 at 8.75, 17.5, 35 μM, FIGS. 6A-6B
Method: Human retinal pigment epithelium cells (ARPE-19) were incubated in a DMEM/F12 cell culture medium (Life Technologies) containing 10% of fetal bovine serum (FBS), and were passaged using a 96-well plate after the cell concentration reached 90% full, which each well was seeded with 4.5×10^3 cells. Next day, Samples 2 and 8 were diluted with dimethyl sulfoxide (DMSO) to about 200 times of test concentration, and after that, appropriate amount of DMEM/F12 cell culture medium containing 5% fetal bovine serum was added and diluted to twice test concentration. Then, the resultant was mixed with 0.2 mM of tert-butyl hydroperoxide (tBHP, Sigma) in equal proportions to reach the test concentration (containing 0.5% of dimethyl sulfoxide). The diluted sample was added to the plate with the cells, which was placed in an incubator reacted for 24 hours, and the cell viability was analyzed by MTT solution. The absorbance was measured at a wavelength of 570 nm, and the cells not being treated by the medicine was a control, and the average absorbance of which was set to 100%. The cell viability of the cells being treated by the medicine was calculate by the following formula based on the measured absorbance:
Cell viability=(absorbance of the experimental group/average absorbance of the control)×100%.
The experiment results are shown in FIGS. 6A-6B, which show mean±standard error of six experimental groups (n=6). The statistical differences between damaging group (i.e. accepting damaging medicine, and no protective medicine) and testing medicine groups and the control group (Control, containing 0.5% of DMSO) were analyzed by Dunnett's multiple comparison test, which “*” represented p<0.05; “**” represented p<0.01; “***” represented p<0.001; and “****” represented p<0.0001.

[2] = target: Aβ40 (Homo sapiens, UniProt P05067); experiment: Aβ40 aggregation, thioflavin T assay; type: biochemical; conditions: for inhibition at 20 µM / inhibition at 200 µM: 4 hours 37° C.; for inhibition at 20 µM: FIG. 3A; for inhibition at 200 µM: FIG. 3B; for inhibit Aβ40 accumulation (ThT assay): summary of Experimental example 3
Sequence of Aβ40 (P05067 672-711 limits assumed): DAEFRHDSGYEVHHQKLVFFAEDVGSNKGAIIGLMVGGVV
Method: Aβ40 aggregation: The Aβ40 stock was redissloved in DMSO to 10 mg/mL. Each group included 0.5 μL of 10 mg/mL Aβ40 and 4.5 μL of the testing sample diluted with Dulbecco's Phosphate-Buffered Saline (D-PBS). The concentrations of Sample 1 were 10 μM and 100 μM, and the concentrations of Sample 2-8 were 20 μM and 200 μM. The total reaction volume was 5 μL, and each concentration of each sample included 6 groups. After incubating in a 37° C. incubator for 4 hours, 200 μL of thioflavin T working solution (ThT working solution) was added and mixed thoroughly, which the thioflavin T working solution was 10 μM of thioflavin T dissolving in potassium phosphate buffer (PB buffer, pH 6.0). 200 μL of the mixture was placed into a black, clear bottom 96-well plate, and the ThT fluorescence intensity (Ex: 440 nm, Em: 482 nm) was measured to determine the level of Aβ40 aggregation. This experimental example used thioflavin T assay (ThT assay) to evaluate the level of Aβ40 aggregation. Since ThT and Congo red derivatives can form bonds with aggregated form of Aβ protein, the level of Aβ aggregation is higher when the amount of bonded ThT is more. By detecting the variation in the amount of ThT, the change in the level of Aβ aggregation can be estimated. The value of not reacting with any sample (i.e. only containing 0.5 μL of Aβ40 and 4.5 μL of D-PBS, which the final concentration of Aβ40 was 1 mg/mL) was a control and set to 100%, and isoacteoside (IsoA) was used as a positive control. The values of the testing samples were compared to the control and expressed in percentage, and the experiment results are shown in FIGS. 3A-3B. The results shown in FIGS. 3A-3B were mean±standard error of six experimental groups (n=6), and the statistical differences between the control and the testing samples were analyzed by Dunnett's multiple comparison test, which “*” represented p<0.05; “**” represented p<0.01; “***” represented p<0.001; and “****” represented p<0.0001.
(§1) The concentration of Sample 1 was 10 μM, the concentration of Samples 2-9 was 20 μM, and the concentration of IsoA was 10 μg/mL. The measured value of the control without adding any sample was set to 100%, and other values were adjusted accordingly. […] The concentration of Sample 1 was 100 μM, the concentration of Samples 2-9 was 200 μM, and the concentration of IsoA was 100 μg/mL. The measured value of the control without adding any sample was set to 100%, and other values were adjusted accordingly.

[3] = target: T1, Aβ42 (Homo sapiens, UniProt P05067); experiment: Aβ42 aggregation, thioflavin T assay; type: biochemical; conditions: for inhibition at 20 µM / inhibition at 200 µM: 30 minutes 37° C.; for inhibition at 20 µM: FIG. 4A; for inhibition at 200 µM: FIG. 4B; for inhibit Aβ42 accumulation (ThT assay): summary of Experimental example 4
T1 construct: Aβ42 was redissloved in DMSO to 2.5 mg/mL
T1 sequence (P05067 672-713 limits assumed): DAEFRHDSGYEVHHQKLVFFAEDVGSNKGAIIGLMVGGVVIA
Method: Experimental method: Aβ42 was redissloved in DMSO to 2.5 mg/mL, and Samples 1-9 were diluted with D-PBS to appropriate concentrations. The concentrations of Sample 1 were 10 μM and 100 μM, the concentrations of Sample 2-9 were 20 μM and 200 μM, and the concentrations of IsoA were 10 μg/mL and 100 μg/mL. Each reaction included 1 μL of Aβ42 (final concentration was 0.25 mg/mL) and 9 μL of the testing sample, which each concentration of each sample included 8 groups, and was placed at 37° C. reacting for 30 minutes after thoroughly mixed. 200 μL of Thioflavin T working solution was added and mixed thoroughly after the reaction completed, 200 μL of the which was placed into a black, clear bottom 96-well plate, and the ThT fluorescence intensity (Ex: 440 nm, Em: 482 nm) was measured to determine the level of Aβ42 aggregation. The value of not reacting with any sample (i.e. only containing 1 μL of Aβ42 and 9 μL of D-PBS, which the final concentration of Aβ42 was 0.25 mg/mL) was a control and set to 100%, and isoacteoside (IsoA) was used as a positive control. The values of the samples were compared to the control and expressed in percentage. The experiment results are shown in FIGS. 4A-4B, which show mean±standard error of eight experimental groups (n=8), and the statistical differences between the control and the testing samples were analyzed by Dunnett's multiple comparison test, which “*” represented p<0.05; “**” represented p<0.01; “***” represented p<0.001; and “****” represented p<0.0001.
as §1, with “μg/mL. The level of Aβ42 accumulation was measured by ThT assay, which the measured value” for “μg/mL. The measured value”

[4] = system: Aβ40 in SH-SY5Y-APP695 cell medium; experiment: Inhibiting Aβ40 accumulation in culture medium of SH-SY5Y-APP695 cells (Human Aβ1-40 immunoassay, with MTT); type: cell-based; conditions: for effects of inhibiting Aβ40 accumulation: preliminary screening at lower concentration (10 and 20 μM), 24 hours
Method: Experimental method: Human neuroblastoma cell (SH-SY5Y-APP695), which expresses Swedish APP695 mutation, was incubated in a 3.5-cm culture dish until the cell concentration reached 90% full. When passage, each well of a 24-well plate was seeded with 4×10^5 cells. The culture medium was replaced with 300 μL of chemical-defined medium, which is a DMEM/F12 medium including 5 mM of Hepes buffer, 0.6% of glucose, 3 mM of NaHCO3, […], 100 μg/mL of transferrin, 20 nM of progesterone, 60 μM putrescine, 30 nM of sodium selenite, and 2 μg/mL of heparin, the next day. 3 μL of the testing sample was added into each well, and each concentration of each sample included 4 groups. After the cells were placed in an incubator (37° C., 5% CO2) and treated with the samples for 24 hours, the culture medium was collected and analyzed the amount of Aβ40 in the culture medium after treated by the samples through Human Aβ1-40 Immunoassay kits (Cat.KHB3482, Life Technologies). The cells treated by the samples were analyzed by MTT assay to evaluate the toxicity to the cells caused by sample treatment.
The testing concentrations of Sample 1 were 5 μM and 10 μM, and the testing concentrations of Samples 2-8 were 10 μM and 20 μM. The amount of Aβ40 in a SH-SY5Y-APP695 cell medium that there was no sample added as a control and set to 100%, and the amounts of Aβ40 in the medium after respectively treated by the testing samples were compared to the control and expressed in percentage. β-secretase inhibitor (β-SI) was used as a positive control. The experiment results are shown in FIGS. 1A-1D, which FIGS. 1A and 1C are result diagrams of the samples in inhibiting Aβ40 accumulation, and FIGS. 1B and 1D are result diagrams of the cell viability after treated by the samples. The results shown in FIGS. 1A-1D are mean±standard error of four experimental groups (n=4), and the statistical differences between the control and the testing samples were analyzed by Dunnett's multiple comparison test, which “*” represented p<0.05; “**” represented p<0.01; “***” represented p<0.001; and “****” represented p<0.0001.
Based on the experiment results of Experimental example 1, Sample 3, 4, and 6 having efficacy of inhibiting Aβ40 accumulation were selected. The testing concentrations of the samples were increased to 20, 50, and 100 μM, and were experimented using the method of Experimental example 1. FIG. 2A is a result diagram of the samples in inhibiting Aβ40 accumulation, and FIG. 2B is a result diagram of the cell viability after treated by the samples. The results shown in FIGS. 2A-2B are mean±standard error of four experimental groups (n=4), and the statistical differences between the control and the testing samples were analyzed by Dunnett's multiple comparison test, which “*” represented p<0.05; “**” represented p<0.01; “***” represented p<0.001; and “****” represented p<0.0001.

[5] = summary of Experimental examples 1 and 2

Row | Structure (SMILES) | cell viability compared to the control [1] | inhibition of human retinal pigment epithelium cell death [1] | inhibition at 20 µM [2] [%] | inhibition at 200 µM [2] [%] | inhibit Aβ40 accumulation (ThT assay) [2] | inhibition at 20 µM [3] [%] | inhibition at 200 µM [3] [%] | inhibit Aβ42 accumulation (ThT assay) [3] | effects of inhibiting Aβ40 accumulation ([4]; FIGS. 1A-1D) | inhibit Aβ40 formation in cell [4, 5] | further results
1 | CC(=O)Oc1ccc(/C=C/C(=O)OCC2OC(OCCc3ccc(Cl)cc3)C(OC(C)=O)C(OC(C)=O)C2OC(C)=O)cc1OC(C)=O (centres unmarked) [Sample 2] | even better then the control | could be significantly inhibited | ~20 | ~20 | could effectively inhibit | ~20 | ~40 | could effectively inhibit | – | – | –
2 | O=C(/C=C/c1ccc(OCc2ccccc2)c(OCc2ccccc2)c1)OCC1OC(OCCc2ccccc2)C(O)C(O)C1O (centres unmarked) [Sample 3] | – | – | – | – | – | – | – | – | had effects of inhibiting Aβ40 accumulation | could inhibit Aβ40 formation in cell | inhibition at 20 µM ([4]; Homo sapiens, 20 μM, condition of not affecting the cytotoxicity, FIGS. 2A-2B): ~20%; comparison among samples, inhibiting Aβ40 accumulation ([4]; preliminary screening, FIGS. 1A-1D): had the best result of inhibiting Aβ40 accumulation
3 | O=C(/C=C/c1ccc(O)c(O)c1)OCC1OC(OCCc2ccccc2)C(O)C(O)C1O (centres unmarked) [Sample 4] | – | – | ~30 | ~20 | could effectively inhibit | ~50 | ~70 | could effectively inhibit | had effects of inhibiting Aβ40 accumulation | could inhibit Aβ40 formation in cell | effect of increasing the sample concentration on inhibiting Aβ accumulation ([4]; 20, 50 and 100 μM, FIGS. 2A-2B): could not further enhance the efficacy of inhibiting Aβ accumulation
4 | O=C(/C=C/c1ccc(OCc2ccccc2)c(OCc2ccccc2)c1)OCC1OC(OCCc2cccc(OCc3ccccc3)c2)C(O)C(O)C1O (centres unmarked) [Sample 6] | – | – | – | – | – | – | – | – | had effects of inhibiting Aβ40 accumulation | could inhibit Aβ40 formation in cell | inhibition at 50 µM ([4]; Homo sapiens, 50 μM, condition of not affecting the cytotoxicity, FIGS. 2A-2B): ~40%; comparison among samples, Aβ40 formation in cell [4, 5]: had the best result
5 | O=C(/C=C/c1ccc(O)c(O)c1)OCC1OC(OCCc2ccc(OCc3ccccc3)cc2)C(O)C(O)C1O (centres unmarked) [Sample 8] | even better then the control | could be significantly inhibited | ~30 | ≤ 70 | could effectively inhibit | ~60 | – | could effectively inhibit | – | – | comparison among samples, Aβ40 accumulation (ThT assay) ([2]; summary): had the best result; comparison among samples, Aβ42 accumulation (ThT assay) ([3]; summary): had the best result
6 | CC(C)(C)OO [tBHP, tert-butyl hydroperoxide, reference compound] | – | – | – | – | – | – | – | – | – | – | cell death ([1]; tBHP alone (0.2 mM mixed in equal proportions)): 30%-40%
